From PubChem BioAssay (NCI) come the findings set out here.

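Step 1: Grow cells in 96-well plates. Step 2: Expose to compound for 48 hours at 5 concentrations. Step 3: Interpolate endpoints linearly; if unreached, use highest concentration. At the TGI there is no net growth.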

Some test systems named below: LOX IMVI melanoma; SF-539 CNS; NCI-H23 lung; PC-3 prostate; MDA-N; OVCAR-3 ovarian; HOP-62 NSCLC; RPMI-8226 leukemia; MALME-3M melanoma; NCI/ADR-RES ovarian; HOP-92 NSCLC; COLO 205 colon; SK-MEL-2 melanoma; SF-268 CNS; UO-31 renal; TK-10 renal; RXF 393 renal; HS 578T breast; U251 CNS.
What all share (test): DTP human tumour cell line panel, 48 h

One may read the TGI as the concentration at which net growth stops. High values mean less potent growth arrest, low ones more potent growth arrest. For `COc1cccc(/C=C2/S/C(=N/Nc3nc(C)c(C(C)=O)s3)NC2=O)c1O`, the TGI with LOX IMVI melanoma is over 100 µM; in the assay with SF-539 CNS, over 100 µM; in the assay on NCI-H23 lung, over 100 µM; with PC-3 prostate it was 70.4 µM; in the assay with MDA-N, over 100 µM; in the assay with OVCAR-3 ovarian, 60.3 µM. In addition, the total growth inhibition concentration (TGI) in the assay on HOP-62 NSCLC was over 100 µM; in the assay with RPMI-8226 leukemia, 84.6 µM; in the assay on MALME-3M melanoma, 88.2 µM; with NCI/ADR-RES ovarian it was over 100 µM; in the assay with HOP-92 NSCLC, 91.7 µM; with COLO 205 colon, 64.9 µM. For the same compound, the TGI is 48 µM in the assay on SK-MEL-2 melanoma; over 100 µM in the assay on SF-268 CNS; 51.3 µM with UO-31 renal; 94.2 µM in the assay on TK-10 renal; 93.2 µM with RXF 393 renal; over 100 µM in the assay with HS 578T breast. The compound also displayed a TGI in the assay with U251 CNS of 44 µM.
